The target of assay [1] is Sin3 complex (Homo sapiens, UniProt Q13547+Q92769). In words: Chemoproteomic binding profiling, K562 cell extract, SAHA/ITF2357 probe matrix (Kd app).
For assay [2], the system named is IFNα secretion. Nature of the assay: IFNα secretion assay in peripheral blood mononuclear cells stimulated with ODN2216. Conditions: Homo sapiens, PBMC, read-out: EC50 inhibition of secretion of IFNα.
Assay [3] has as its system recombinant HDACs 1-11. In words: Binding of probe matrix to recombinant HDACs purified from Sf9 cells, competition by free SAHA. Conditions: recombinant HDACs 1-11 purified from Sf9 cells.
Assay [4] deals with T1, PTER (Homo sapiens, UniProt Q96BW5).
T1 construct: endogenous in cells
T1 sequence (Q96BW5 1-349): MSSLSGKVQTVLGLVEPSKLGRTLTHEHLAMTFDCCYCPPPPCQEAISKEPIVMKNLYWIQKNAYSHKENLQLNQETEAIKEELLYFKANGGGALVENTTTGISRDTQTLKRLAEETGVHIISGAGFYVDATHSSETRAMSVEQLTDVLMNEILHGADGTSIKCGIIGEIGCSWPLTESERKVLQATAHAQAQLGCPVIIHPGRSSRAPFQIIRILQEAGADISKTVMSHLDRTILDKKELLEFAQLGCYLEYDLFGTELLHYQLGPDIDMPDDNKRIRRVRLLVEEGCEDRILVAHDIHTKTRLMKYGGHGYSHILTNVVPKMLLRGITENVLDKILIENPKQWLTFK
Nature of the assay: Competition binding assay in cell lysate, affinity matrix, MS.

In assay [5] the target is T2, NOSIP (Homo sapiens, UniProt Q9Y314).
T2 construct: endogenous in cells
The assay is described as above.

Assay [6] has as its target T3, ISOC2 (Homo sapiens, UniProt Q96AB3).
T3 construct: endogenous in cells
The description is as above.

Assay [7] deals with RBBP4. Particulars: K-562 cell lysate.
Assay [8] concerns the target TRERF1. In kind it is binding, human. Particulars: protein TRERF1; ELSA (ELM-SANT) domain proteins; read-out: Kd^app TRERF1.
For assay [9], the system named is Sin3 complex. Nature of the assay: Chemoproteomic binding profiling, K562 cell extract, SAHA/ITF2357 probe matrix (Kd app). The arrangement: species or system human.
Assay [10] concerns T4, MiDAC complex (HDAC1/2, DNTTIP1, CDYL, MIDEAS).
T4 construct: Kd^app MIDEAS; other: protein MIDEAS; MiDAC complex; Kd^app DNTTIP1; other: protein DNTTIP1
The assay is described as above. The arrangement: species or system human.

Setting [11] is: protein SAP30, read-out: Kd^app SAP30.
Where [12] appears, read: protein SIN3A, read-out: Kd^app SIN3A.
Where [13] appears, read: protein SIN3B, read-out: Kd^app SIN3B.

pEC50, pIC50, pKd: −log10 of the molar value. Read-outs that look alike come from different tables or passages of the source.

By pKd is commonly meant the negative decadic logarithm of the Kd, by convention in mol/L. As a reminder, the pEC50 is −log10 of the EC50, conventionally taken in molar units. Broadly, the pIC50 is −log10 of the IC50, conventionally taken in molar units.

T3 sequence (Q96AB3 whole entry): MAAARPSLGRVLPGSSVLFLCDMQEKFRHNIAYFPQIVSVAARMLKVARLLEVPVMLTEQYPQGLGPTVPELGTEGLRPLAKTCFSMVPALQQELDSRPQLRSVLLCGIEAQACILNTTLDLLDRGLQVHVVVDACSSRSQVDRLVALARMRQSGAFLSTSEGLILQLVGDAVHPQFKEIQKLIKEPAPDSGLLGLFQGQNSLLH
T2 sequence (Q9Y314 whole entry): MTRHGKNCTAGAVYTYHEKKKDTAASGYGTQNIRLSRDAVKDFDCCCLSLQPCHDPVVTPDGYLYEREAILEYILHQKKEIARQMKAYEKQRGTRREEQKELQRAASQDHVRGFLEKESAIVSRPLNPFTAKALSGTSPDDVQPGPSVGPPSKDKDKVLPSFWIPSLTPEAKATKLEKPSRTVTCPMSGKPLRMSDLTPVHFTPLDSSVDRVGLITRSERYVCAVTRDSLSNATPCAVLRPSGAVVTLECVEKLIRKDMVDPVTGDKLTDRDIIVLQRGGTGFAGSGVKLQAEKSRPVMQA

Turning to `CCCCOc1ccc(CC(=O)NO)cc1` [bufexamac], the pKd in assay [1] (setting [11]) is 3.90; in assay [1] (setting [12]), 3.73; in [1] (setting [13]), under 4.22. Besides, the pEC50 in assay [2] is 5.05.
Take `O=C(CCCCCCC(=O)Nc1ccccc1)NO` [SAHA, suberoylanilide hydroxamic acid]: in assay [3], the “competition of capture of recombinant HDACs by the probe matrix (in words)” value is given as “only affected at a high excess of free SAHA”. Besides, the negative logarithm of the IC50 (pIC50) in [4] was at most 5.00; in assay [4] (IC50, PTER, mix of Jurkat and Ramos cell lysates), 5.00.
Regarding `Nc1ccccc1NC(=O)c1ccc(CNC(=O)OCc2cccnc2)cc1` [MS-275], the negative logarithm of the IC50 (pIC50) in assay [5] is at most 3.52; in assay [6] it was at most 3.52; in assay [7] it was 3.52; in assay [4], at most 3.52. The negative logarithm of the Kd (pKd) in assay [8] is under 3.52.
`Nc1ccccc1NC(=O)CCCCCCC(=O)Nc1ccccc1` [BML-210]: the negative-log Kd (pKd) is under 4.07 in [9] (setting [11]); under 4.07 in assay [9] (setting [12]); under 4.07 in [9] (setting [13]); under 4.07 in assay [10] (protein DNTTIP1, read-out: Kd^app DNTTIP1); under 4.07 in assay [10] (protein MIDEAS, read-out: Kd^app MIDEAS).

Source of the values: US20130071854A1, “METHODS FOR THE IDENTIFICATION AND CHARACTERIZATION OF HDAC INTERACTING COMPOUNDS” (priority 2009, published 2013).
